Work on `CC(=O)NC1CCSC1=O` (stereo not given) yielded a solubility (mole fraction) (in 2-butoxyethanol, 278.15 K) of 0.0606, a solubility (mole fraction) (in 2-butoxyethanol, 283.15 K) of 0.0701 and a solubility (mole fraction) (in 2-butoxyethanol, 288.15 K) of 0.0776. The solubility (mole fraction) (in 2-butoxyethanol, 293.15 K) was 0.0895, the solubility (mole fraction) (in 2-butoxyethanol, 298.15 K) was 0.102 and the solubility (mole fraction) (in 2-butoxyethanol, 303.15 K) was 0.116. It also gave a solubility (mole fraction) (in 2-butoxyethanol, 308.15 K) of 0.132, a solubility (mole fraction) (in 2-butoxyethanol, 313.15 K) of 0.15 and a solubility (mole fraction) (in 2-butoxyethanol, 318.15 K) of 0.175. The solubility (mole fraction) (in 2-butoxyethanol, 323.15 K) was 0.199, the solubility (mole fraction) (in 2-ethoxyethanol, 278.15 K) was 0.0952 and the solubility (mole fraction) (in 2-ethoxyethanol, 283.15 K) was 0.108. It also gave a solubility (mole fraction) (in 2-ethoxyethanol, 288.15 K) of 0.121, a solubility (mole fraction) (in 2-ethoxyethanol, 293.15 K) of 0.141 and a solubility (mole fraction) (in 2-ethoxyethanol, 298.15 K) of 0.158. The solubility (mole fraction) (in 2-ethoxyethanol, 303.15 K) was 0.176, the solubility (mole fraction) (in 2-ethoxyethanol, 308.15 K) was 0.199 and the solubility (mole fraction) (in 2-ethoxyethanol, 313.15 K) was 0.223. It also gave a solubility (mole fraction) (in 2-ethoxyethanol, 318.15 K) of 0.248, a solubility (mole fraction) (in 2-ethoxyethanol, 323.15 K) of 0.278 and a solubility (mole fraction) (in 2-methoxyethanol, 278.15 K) of 0.132. The solubility (mole fraction) (in 2-methoxyethanol, 283.15 K) was 0.15, the solubility (mole fraction) (in 2-methoxyethanol, 288.15 K) was 0.169 and the solubility (mole fraction) (in 2-methoxyethanol, 293.15 K) was 0.189. It also gave a solubility (mole fraction) (in 2-methoxyethanol, 298.15 K) of 0.21, a solubility (mole fraction) (in 2-methoxyethanol, 303.15 K) of 0.233 and a solubility (mole fraction) (in 2-methoxyethanol, 308.15 K) of 0.255. For the same compound, the solubility (mole fraction) (in 2-methoxyethanol, 313.15 K) was 0.279, the solubility (mole fraction) (in 2-methoxyethanol, 318.15 K) was 0.31 and the solubility (mole fraction) (in 2-methoxyethanol, 323.15 K) was 0.344. The solubility (mole fraction) (in 2-propoxyethanol, 278.15 K) was 0.0753, the solubility (mole fraction) (in 2-propoxyethanol, 283.15 K) was 0.0874 and the solubility (mole fraction) (in 2-propoxyethanol, 288.15 K) was 0.0976. For the same compound, the solubility (mole fraction) (in 2-propoxyethanol, 293.15 K) was 0.11, the solubility (mole fraction) (in 2-propoxyethanol, 298.15 K) was 0.123 and the solubility (mole fraction) (in 2-propoxyethanol, 303.15 K) was 0.138. It also gave a solubility (mole fraction) (in 2-propoxyethanol, 308.15 K) of 0.158, a solubility (mole fraction) (in 2-propoxyethanol, 313.15 K) of 0.179 and a solubility (mole fraction) (in 2-propoxyethanol, 318.15 K) of 0.203. For the same compound, the solubility (mole fraction) (in 2-propoxyethanol, 323.15 K) was 0.23, the solubility (mole fraction) (in ethanol, 278.15 K) was 0.0355 and the solubility (mole fraction) (in ethanol, 283.15 K) was 0.0439. It also gave a solubility (mole fraction) (in ethanol, 288.15 K) of 0.055, a solubility (mole fraction) (in ethanol, 293.15 K) of 0.0699 and a solubility (mole fraction) (in ethanol, 298.15 K) of 0.0866. For the same compound, the solubility (mole fraction) (in ethanol, 303.15 K) was 0.107, the solubility (mole fraction) (in ethanol, 308.15 K) was 0.132 and the solubility (mole fraction) (in ethanol, 313.15 K) was 0.164. For the same compound, the solubility (mole fraction) (in ethanol, 318.15 K) was 0.201, the solubility (mole fraction) (in ethanol, 323.15 K) was 0.243 and the solubility (mole fraction) (in ethyl acetate, 278.15 K) was 0.0168. It also gave a solubility (mole fraction) (in ethyl acetate, 283.15 K) of 0.0199, a solubility (mole fraction) (in ethyl acetate, 288.15 K) of 0.0235 and a solubility (mole fraction) (in ethyl acetate, 293.15 K) of 0.0283. The solubility (mole fraction) (in ethyl acetate, 298.15 K) was 0.0325, the solubility (mole fraction) (in ethyl acetate, 303.15 K) was 0.0388 and the solubility (mole fraction) (in ethyl acetate, 308.15 K) was 0.0455. For the same compound, the solubility (mole fraction) (in ethyl acetate, 313.15 K) was 0.0546, the solubility (mole fraction) (in ethyl acetate, 318.15 K) was 0.0649 and the solubility (mole fraction) (in ethyl acetate, 323.15 K) was 0.0772. For the same compound, the solubility (mole fraction) (in methanol, 278.15 K) was 0.0713, the solubility (mole fraction) (in methanol, 283.15 K) was 0.0887 and the solubility (mole fraction) (in methanol, 288.15 K) was 0.111. The solubility (mole fraction) (in methanol, 293.15 K) was 0.137, the solubility (mole fraction) (in methanol, 298.15 K) was 0.165 and the solubility (mole fraction) (in methanol, 303.15 K) was 0.192. The solubility (mole fraction) (in methanol, 308.15 K) was 0.222, the solubility (mole fraction) (in methanol, 313.15 K) was 0.253 and the solubility (mole fraction) (in methanol, 318.15 K) was 0.288. For the same compound, the solubility (mole fraction) (in methanol, 323.15 K) was 0.321, the solubility (mole fraction) (in methyl acetate, 278.15 K) was 0.0229 and the solubility (mole fraction) (in methyl acetate, 283.15 K) was 0.0271. It also gave a solubility (mole fraction) (in methyl acetate, 288.15 K) of 0.033, a solubility (mole fraction) (in methyl acetate, 293.15 K) of 0.0401 and a solubility (mole fraction) (in methyl acetate, 298.15 K) of 0.0478. It also gave a solubility (mole fraction) (in methyl acetate, 303.15 K) of 0.0559, a solubility (mole fraction) (in methyl acetate, 308.15 K) of 0.0673 and a solubility (mole fraction) (in methyl acetate, 313.15 K) of 0.081. It also gave a solubility (mole fraction) (in methyl acetate, 318.15 K) of 0.0965, a solubility (mole fraction) (in methyl acetate, 323.15 K) of 0.119 and a solubility (mole fraction) (in n-butanol, 278.15 K) of 0.0244. It also gave a solubility (mole fraction) (in n-butanol, 283.15 K) of 0.0301, a solubility (mole fraction) (in n-butanol, 288.15 K) of 0.0388 and a solubility (mole fraction) (in n-butanol, 293.15 K) of 0.047. The solubility (mole fraction) (in n-butanol, 298.15 K) was 0.0574, the solubility (mole fraction) (in n-butanol, 303.15 K) was 0.0692 and the solubility (mole fraction) (in n-butanol, 308.15 K) was 0.0846. For the same compound, the solubility (mole fraction) (in n-butanol, 313.15 K) was 0.104, the solubility (mole fraction) (in n-butanol, 318.15 K) was 0.128 and the solubility (mole fraction) (in n-butanol, 323.15 K) was 0.159. The solubility (mole fraction) (in n-butyl acetate, 278.15 K) was 0.0119, the solubility (mole fraction) (in n-butyl acetate, 283.15 K) was 0.0141 and the solubility (mole fraction) (in n-butyl acetate, 288.15 K) was 0.0169. For the same compound, the solubility (mole fraction) (in n-butyl acetate, 293.15 K) was 0.0194, the solubility (mole fraction) (in n-butyl acetate, 298.15 K) was 0.0228 and the solubility (mole fraction) (in n-butyl acetate, 303.15 K) was 0.0263. For the same compound, the solubility (mole fraction) (in n-butyl acetate, 308.15 K) was 0.0307, the solubility (mole fraction) (in n-butyl acetate, 313.15 K) was 0.0364 and the solubility (mole fraction) (in n-butyl acetate, 318.15 K) was 0.0411. For the same compound, the solubility (mole fraction) (in n-butyl acetate, 323.15 K) was 0.0496, the solubility (mole fraction) (in n-pentanol, 278.15 K) was 0.0232 and the solubility (mole fraction) (in n-pentanol, 283.15 K) was 0.0294. It also gave a solubility (mole fraction) (in n-pentanol, 288.15 K) of 0.0362, a solubility (mole fraction) (in n-pentanol, 293.15 K) of 0.0429 and a solubility (mole fraction) (in n-pentanol, 298.15 K) of 0.0532. For the same compound, the solubility (mole fraction) (in n-pentanol, 303.15 K) was 0.0646, the solubility (mole fraction) (in n-pentanol, 308.15 K) was 0.0769 and the solubility (mole fraction) (in n-pentanol, 313.15 K) was 0.093. The solubility (mole fraction) (in n-pentanol, 318.15 K) was 0.114, the solubility (mole fraction) (in n-pentanol, 323.15 K) was 0.14 and the solubility (mole fraction) (in n-propanol, 278.15 K) was 0.0282. For the same compound, the solubility (mole fraction) (in n-propanol, 283.15 K) was 0.0343, the solubility (mole fraction) (in n-propanol, 288.15 K) was 0.0456 and the solubility (mole fraction) (in n-propanol, 293.15 K) was 0.0553. It also gave a solubility (mole fraction) (in n-propanol, 298.15 K) of 0.0678, a solubility (mole fraction) (in n-propanol, 303.15 K) of 0.0839 and a solubility (mole fraction) (in n-propanol, 308.15 K) of 0.104. For the same compound, the solubility (mole fraction) (in n-propanol, 313.15 K) was 0.129, the solubility (mole fraction) (in n-propanol, 318.15 K) was 0.159 and the solubility (mole fraction) (in n-propanol, 323.15 K) was 0.197. It also gave a solubility (mole fraction) (in n-propyl acetate, 278.15 K) of 0.0131, a solubility (mole fraction) (in n-propyl acetate, 283.15 K) of 0.0155 and a solubility (mole fraction) (in n-propyl acetate, 288.15 K) of 0.0187. The solubility (mole fraction) (in n-propyl acetate, 293.15 K) was 0.0217, the solubility (mole fraction) (in n-propyl acetate, 298.15 K) was 0.0257 and the solubility (mole fraction) (in n-propyl acetate, 303.15 K) was 0.0296. The solubility (mole fraction) (in n-propyl acetate, 308.15 K) was 0.0351, the solubility (mole fraction) (in n-propyl acetate, 313.15 K) was 0.0411 and the solubility (mole fraction) (in n-propyl acetate, 318.15 K) was 0.0486. It also gave a solubility (mole fraction) (in n-propyl acetate, 323.15 K) of 0.0575.

Source: BigSolDB 2.1
